{"source": "patent US20210235692A1", "about": "“Stable 1-Methylcyclopropene Compositions and Uses Thereof” (Fresh Inset S.A., priority 2020, published 2021)", "assay": "Percentage of dimers by gas chromatography over time, 1-MCP/butane 1:1 and negative control", "type": "physicochemical", "description": "1-MCP and butane was mixed in liquid form in 1:1 ratio (v/v). Then, the mixture was transferred into the glass container.\nTable 18 and FIG. 11 (plot line with circular data points) show the percentage of dimers in the composition as measured by gas chromatography at various points over time. The dotted line is a trend line that extrapolates the 1-MCP/butane plot. A negative control containing only 1-MCP was used for comparison. Table 19 and FIG. 11 (plot line with square data points) show the percentage of dimers in the negative control as measured by gas chromatography at the same points over time that the composition was measured."}
{"smiles": "CC1=CC1", "note": "[negative control, 1-methylcyclopropene]", "values": [{"measurement": "% of dimer", "setting": "time 1 h", "result": 0.229, "unit": "%"}, {"measurement": "% of dimer", "setting": "time 3.75 h", "result": 0.401, "unit": "%"}, {"measurement": "% of dimer", "setting": "time 25.75 h", "result": 4.013, "unit": "%"}, {"measurement": "% of dimer", "setting": "time 123.5 h", "result": 49.588, "unit": "%"}]}
